# pIC50: −log10 of the molar value. Entries after “also recorded” stand apart in the source; their conditions may differ.
# Target: T1, Acetylcholinesterase from electrophorus electricus (electric eel) (Electrophorus electricus, UniProt O42275)
# T1 construct: purchased Sigma (St. Louis, MO)
# Assay: biochemical
# Details: modified Ellman's method, eeAChE; read-out: AchE IC50
# Text: Acetylcholinesterase from electrophorus electricus (electric eel), horse butyrylcholinesterase, Acetylcholine iodide, S-butyrylthiocholine chloride and 5,5′-dithio-bis-nitrobenzoic acid (DTNB) were purchased from the Sigma (St. Louis, MO) while bovine serum albumin (BSA) purchased from Research and Diagnostic Technology (RDT). Buffers and other chemicals were purchases from pure chemicals as a pure experimental grade. All the reagents and experimental conditions were same as described by previous reports. […] Acetylcholinesterase and butyrylcholinesterase inhibition was performed spectrometrically using acetylthiocholine and butyrylthiocholine as a substrate. Experiment was performed with slight modification in the method described by Ellman et al.[78]. Then, […] sodium phosphate buffer (pH 8.0), enzyme preparation and different concentration of test compound was mixed and incubated for 30 min followed by the addition of DTNB and the reactions was initiated by adding respective enzyme substrate like acetylthiocholine iodide, butyrylthiocholine chloride for Acetylcholinesterase and butyrylcholinesterase inhibition assay respectively. The hydrolysis of acetylthiocholine or butyrylthiocholineyield a dark yellow 5-thio-2-nitrobenzoate anion because of the reaction between DTNB with enzyme and enzyme substrate. […] Percentage inhibition was calculated taking negative control as 100%.
# T1 sequence (O42275 24-633): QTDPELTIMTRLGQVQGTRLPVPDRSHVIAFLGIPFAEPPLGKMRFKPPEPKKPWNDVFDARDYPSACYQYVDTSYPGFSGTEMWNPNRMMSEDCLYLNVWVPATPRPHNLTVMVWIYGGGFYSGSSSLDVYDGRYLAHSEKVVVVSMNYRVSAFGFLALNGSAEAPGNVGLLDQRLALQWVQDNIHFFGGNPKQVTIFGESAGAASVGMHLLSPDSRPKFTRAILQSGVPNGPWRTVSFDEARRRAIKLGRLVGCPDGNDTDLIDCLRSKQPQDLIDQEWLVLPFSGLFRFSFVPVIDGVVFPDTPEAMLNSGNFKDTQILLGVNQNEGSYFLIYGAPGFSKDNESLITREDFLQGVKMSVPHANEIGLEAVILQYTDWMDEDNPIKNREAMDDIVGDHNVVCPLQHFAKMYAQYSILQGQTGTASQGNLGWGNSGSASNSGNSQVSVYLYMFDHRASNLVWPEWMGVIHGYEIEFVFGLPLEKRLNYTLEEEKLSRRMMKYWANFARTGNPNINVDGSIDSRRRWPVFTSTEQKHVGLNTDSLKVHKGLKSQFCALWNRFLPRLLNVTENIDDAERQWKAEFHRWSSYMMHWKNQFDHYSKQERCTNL
row,Structure (SMILES),pIC50
1,"COc1ccccc1OCCN(CC(=O)CC(O)c1cccc(-c2ccccc2)c1)Cc1ccccc1 (stereo not drawn) [5c, 4-([1,1′-biphenyl]-3-yl)-1-(benzyl(2-(2-methoxyphenoxy)ethyl)amino)-4-hydroxybutan-2-one]",4.23
2,"COc1ccccc1OCCN(Cc1ccccc1)CC(O)CC(O)c1cccc2[nH]c3ccccc3c12 (stereo not drawn) [6a, 4-(benzyl(2-(2-methoxyphenoxy)ethyl)amino)-1-(9H-carbazol-4-yl)butane-1,3-diol]",4.18

# Target: T2, horse butyrylcholinesterase (Equus caballus, UniProt P81908)
# T2 construct: purchased Sigma (St. Louis, MO)
# Assay: biochemical
# Type: biochemical
# Details: modified Ellman's method, horse BuChE; read-out: bAchE IC50
# Text: Acetylcholinesterase from electrophorus electricus (electric eel), horse butyrylcholinesterase, Acetylcholine iodide, S-butyrylthiocholine chloride and 5,5′-dithio-bis-nitrobenzoic acid (DTNB) were purchased from the Sigma (St. Louis, MO) while bovine serum albumin (BSA) purchased from Research and Diagnostic Technology (RDT). Buffers and other chemicals were purchases from pure chemicals as a pure experimental grade. All the reagents and experimental conditions were same as described by previous reports. […] Acetylcholinesterase and butyrylcholinesterase inhibition was performed spectrometrically using acetylthiocholine and butyrylthiocholine as a substrate. Experiment was performed with slight modification in the method described by Ellman et al.[78]. Then, […] sodium phosphate buffer (pH 8.0), enzyme preparation and different concentration of test compound was mixed and incubated for 30 min followed by the addition of DTNB and the reactions was initiated by adding respective enzyme substrate like acetylthiocholine iodide, butyrylthiocholine chloride for Acetylcholinesterase and butyrylcholinesterase inhibition assay respectively. The hydrolysis of acetylthiocholine or butyrylthiocholineyield a dark yellow 5-thio-2-nitrobenzoate anion because of the reaction between DTNB with enzyme and enzyme substrate. […] Solvent used for compound dilution was used for the negative control. Percentage inhibition was calculated taking negative control as 100%.
# T2 sequence (P81908 whole entry): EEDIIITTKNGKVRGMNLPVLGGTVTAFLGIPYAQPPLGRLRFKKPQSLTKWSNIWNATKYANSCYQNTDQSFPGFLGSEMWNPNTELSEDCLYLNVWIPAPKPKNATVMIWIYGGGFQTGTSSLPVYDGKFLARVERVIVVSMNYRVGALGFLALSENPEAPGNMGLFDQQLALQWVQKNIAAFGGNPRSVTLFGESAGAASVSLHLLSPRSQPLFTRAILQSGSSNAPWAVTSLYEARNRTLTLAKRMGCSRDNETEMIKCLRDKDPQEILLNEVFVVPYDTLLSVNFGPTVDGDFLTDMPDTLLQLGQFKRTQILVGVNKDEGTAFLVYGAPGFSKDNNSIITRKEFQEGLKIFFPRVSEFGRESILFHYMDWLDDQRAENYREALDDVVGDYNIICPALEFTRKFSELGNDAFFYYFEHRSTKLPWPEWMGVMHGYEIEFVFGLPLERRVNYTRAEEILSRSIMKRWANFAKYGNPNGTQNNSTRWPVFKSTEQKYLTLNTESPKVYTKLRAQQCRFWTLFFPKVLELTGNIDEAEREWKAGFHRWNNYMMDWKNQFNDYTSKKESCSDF
row,Structure (SMILES),pIC50
1,"COc1ccccc1OCCN(CC(=O)CC(O)c1cccc(-c2ccccc2)c1)Cc1ccccc1 (stereo not drawn) [5c, 4-([1,1′-biphenyl]-3-yl)-1-(benzyl(2-(2-methoxyphenoxy)ethyl)amino)-4-hydroxybutan-2-one]",< 3.30
2,"COc1ccccc1OCCN(Cc1ccccc1)CC(O)CC(O)c1cccc2[nH]c3ccccc3c12 (stereo not drawn) [6a, 4-(benzyl(2-(2-methoxyphenoxy)ethyl)amino)-1-(9H-carbazol-4-yl)butane-1,3-diol]",< 3.30

# Same assay, conditions: result in words
row,Structure (SMILES),effect against BchE
1,"COc1ccccc1OCCN(CC(=O)CC(O)c1cccc(-c2ccccc2)c1)Cc1ccccc1 (stereo not drawn) [5c, 4-([1,1′-biphenyl]-3-yl)-1-(benzyl(2-(2-methoxyphenoxy)ethyl)amino)-4-hydroxybutan-2-one]",without inhibiting; also recorded: did not showed the effect
2,"COc1ccccc1OCCN(Cc1ccccc1)CC(O)CC(O)c1cccc2[nH]c3ccccc3c12 (stereo not drawn) [6a, 4-(benzyl(2-(2-methoxyphenoxy)ethyl)amino)-1-(9H-carbazol-4-yl)butane-1,3-diol]",without inhibiting; also recorded: did not showed the effect

# Test system: AChE
# Assay: not given
# Details: ChEMBL dataset, Ellman assay ref 43; cited from earlier work
row,Structure (SMILES),Exp. pIC50
1,CCCN1CCCCc2ccc(C(=O)CCC3CCN(Cc4ccccc4)CC3)cc21 [CHEMBL307513],5.876
2,O=C1Nc2ccccc2CN1CCC1CCN(Cc2ccccc2)CC1 [CHEMBL141276],7.886
3,O=c1c2ccccc2ccn1CCC1CCN(Cc2ccccc2)CC1 [CHEMBL141203],5.959
4,Nc1cccc2c1C(=O)N(CCC1CCN(Cc3ccccc3)CC1)C2=O [CHEMBL138442],7.959
5,COc1ccc(C(=O)N(CCC2CCN(Cc3ccccc3)CC2)c2ccccc2)cc1 [CHEMBL141873],6.229
6,O=C1c2cccc([N+](=O)[O-])c2C(=O)N1CCC1CCN(Cc2ccccc2)CC1 [CHEMBL141001],8.046
7,O=C(c1ccccc1)c1ccc2c(c1)C(=O)N(CCC1CCN(Cc3ccccc3)CC1)C2=O [CHEMBL140999],8.62
8,O=C1c2ccccc2CN1CCC1CCN(Cc2ccccc2)CC1 [CHEMBL333909],7.009
9,CN1CCc2cc(C(=O)CCC3CCN(Cc4ccccc4)CC3)ccc21 [CHEMBL311017],8
10,c1ccc(CN2CCC(CNc3ccc(-c4ccccc4)nn3)CC2)cc1 [CHEMBL1083367],4.252
11,O=C(CCC1CCN(Cc2ccccc2)CC1)c1ccc2c(c1)OCO2 [CHEMBL1082434],7.523
12,Cc1nc2ccc(C(=O)CCC3CCN(Cc4ccccc4)CC3)cc2[nH]1 [CHEMBL1084790],7.921
13,O=C(Nc1cccc2c1C(=O)N(CCC1CCN(Cc3ccccc3)CC1)C2=O)c1ccccc1 [CHEMBL141622],6.469
14,CCN1CCc2cc(C(=O)CCC3CCN(Cc4ccccc4)CC3)ccc21 [CHEMBL308793],7.959
15,O=C(Nc1ccccc1)c1ccc2c(c1)C(=O)N(CCC1CCN(Cc3ccccc3)CC1)C2=O [CHEMBL1084256],8.658
16,O=C(c1ccc([N+](=O)[O-])cc1)N(CCC1CCN(Cc2ccccc2)CC1)c1ccccc1 [CHEMBL126354],8.268
17,O=C(CCC1CCN(Cc2ccccc2)CC1)c1ccc2[nH]c(-c3ccccc3)nc2c1 [CHEMBL1082436],7.481
18,N#Cc1ccc2c(CCC3CCN(Cc4ccccc4)CC3)noc2c1 [CHEMBL92775],6.996
19,O=C1Cc2cc3onc(CCC4CCN(Cc5ccccc5)CC4)c3cc2N1 [CHEMBL328468],9.022
20,Cc1nc2ccc(C(=O)CCC3CCN(Cc4ccccc4)CC3)cc2s1 [CHEMBL1084275],8.167
21,O=C(CCC1CCN(Cc2ccccc2)CC1)c1ccc2c(c1)NCCC2 [CHEMBL73593],6.785
22,O=C1CCc2cc3c(CCC4CCN(Cc5ccccc5)CC4)noc3cc2N1 [CHEMBL329231],9.244

row,Structure (SMILES),Exp. pIC50
1,Cc1cc(-c2ccccc2)n[nH]c1=NCCC1CCN(Cc2ccccc2)CC1 [CHEMBL94054],6.495
2,O=C1c2ccc([N+](=O)[O-])cc2C(=O)N1CCC1CCN(Cc2ccccc2)CC1 [CHEMBL105874],7.903
3,Cc1cccc(CN2CCC(CCC(=O)c3ccc4c(c3)CCN4)CC2)c1 [CHEMBL306179],7.301
4,O=C1c2ccccc2NCN1CCC1CCN(Cc2ccccc2)CC1 [CHEMBL141810],6.097
5,O=C1Cc2c(ccc3c(CCC4CCN(Cc5ccccc5)CC4)noc23)N1 [CHEMBL95020],8.444
6,O=C1Cc2ccccc2C(=O)N1CCC1CCN(Cc2ccccc2)CC1 [CHEMBL141042],7.638
7,COc1ccccc1CN1CCC(CCC(=O)c2ccc3c(c2)CCN3)CC1 [CHEMBL306776],6.09
8,COc1cccc(N(CCC2CCN(Cc3ccccc3)CC2)C(C)=O)c1 [CHEMBL127527],7.337
9,O=C(CCC1CCN(Cc2cccc([N+](=O)[O-])c2)CC1)c1ccc2c(c1)NCCCC2 [CHEMBL307832],6.409
10,COc1ccc2c(c1)C(=O)N(CCC1CCN(Cc3ccccc3)CC1)C2=O [CHEMBL140770],8.097
11,O=C1c2ccccc2CCN1CCC1CCN(Cc2ccccc2)CC1 [CHEMBL142014],6
12,CC(=O)Nc1ccc2c(c1)C(=O)N(CCC1CCN(Cc3ccccc3)CC1)C2=O [CHEMBL433678],8.553
13,CN1CCCc2ccc(C(=O)CCC3CCN(Cc4ccccc4)CC3)cc21 [CHEMBL76470],7.444
14,Cc1ccc2onc(CCC3CCN(Cc4ccccc4)CC3)c2c1 [CHEMBL433379],8.108
15,CCn1c(C)nc2cc(C(=O)CCC3CCN(Cc4ccccc4)CC3)ccc21 [CHEMBL1082435],8.367
16,O=C1Cc2ccccc2CN1CCC1CCN(Cc2ccccc2)CC1 [CHEMBL140990],7.77
17,O=C(CCC1CCN(Cc2ccccc2)CC1)c1ccc2c(c1)CCN2 [CHEMBL75110],7.699
18,COc1ccc(N(CCC2CCN(Cc3ccccc3)CC2)C(C)=O)cc1 [CHEMBL141801],6.155
19,CN1CCCc2cc(C(=O)CCC3CCN(Cc4ccccc4)CC3)ccc21 [CHEMBL1083660],7.62
20,COc1ccccc1CN1CCC(CCC(=O)c2ccc3c(c2)NCCCC3)CC1 [CHEMBL309173],5.576
21,O=C(c1ccncc1)N(CCC1CCN(Cc2ccccc2)CC1)c1ccccc1 [CHEMBL340621],7.194
22,O=C(CCC1CCN(Cc2cccc(F)c2)CC1)c1ccc2c(c1)CCN2 [CHEMBL308807],7.796

row,Structure (SMILES),Exp. pIC50
1,O=C1Cc2cc3c(CCC4CCN(Cc5ccccc5)CC4)noc3cc2N1 [CHEMBL359570],9.481
2,O=C(CCC1CCN(Cc2ccccc2)CC1)c1ccc2c(c1)CCCN2c1ccccc1 [CHEMBL1083662],7.268
3,Brc1ccc2c(CCC3CCN(Cc4ccccc4)CC3)noc2c1 [CHEMBL330004],7.301
4,CC(=O)N(CCC1CCN(Cc2ccccc2)CC1)c1cccc(F)c1 [CHEMBL141167],7.187
5,O=C(CCC1CCN(Cc2cccc(F)c2)CC1)c1ccc2c(c1)NCCCC2 [CHEMBL308093],6.839
6,O=c1c2ccccc2ncn1CCC1CCN(Cc2ccccc2)CC1 [CHEMBL140328],5.921
7,c1ccc(CN2CCC(Nc3ccc(-c4ccccc4)nn3)CC2)cc1 [CHEMBL1083058],4.187
8,O=C(CCC1CCN(Cc2ccccc2Cl)CC1)c1ccc2c(c1)CCN2 [CHEMBL306175],7.119
9,O=C(CCC1CCN(Cc2ccccc2)CC1)c1ccc2c(c1)CCCN2 [CHEMBL1083661],7.268
10,CCC(=O)N(CCC1CCN(Cc2ccccc2)CC1)c1ccccc1 [CHEMBL141853],6.081
11,O=C(c1ccc(F)cc1)N(CCC1CCN(Cc2ccccc2)CC1)c1ccccc1 [CHEMBL140737],7.745
12,O=C1c2ccccc2C(=O)N1CCC1CCN(Cc2ccccc2)CC1 [CHEMB L106891],7.097
13,CN(CCNc1ccc(-c2ccccc2)nn1)Cc1ccccc1 [CHEMBL1086185],3.77
14,O=C(CCC1CCN(Cc2cccc(Cl)c2)CC1)c1ccc2c(c1)NCCCC2 [CHEMBL420378],6.478
15,O=c1[nH]c2cc(Cl)ccc2c(=O)n1CCC1CCN(Cc2ccccc2)CC1 [CHEMBL138552],8.347
16,O=C(CCC1CCN(Cc2ccccc2)CC1)c1ccc2c(c1)CCN2c1ccccc1 [CHEMBL1085858],7.167
17,CN(CCCCCNc1ccc(-c2ccccc2)nn1)Cc1ccccc1 [CHEMBL1083057],6.131
18,CCN1CCCCc2ccc(C(=O)CCC3CCN(Cc4ccccc4)CC3)cc21 [CHEMBL310467],6.425
19,O=C1c2cccnc2C(=O)N1CCC1CCN(Cc2ccccc2)CC1 [CHEMBL140106],7.886
20,O=C(Nc1ccc2c(c1)C(=O)N(CCC1CCN(Cc3ccccc3)CC1)C2=O)c1ccccc1 [CHEMBL138107],8.921
21,CN(CCCCNc1ccc(-c2ccccc2)nn1)Cc1ccccc1 [CHEMBL1084257],4.959

# Test system: bAchE
# Assay: not given
# Details: read-out: bAchE IC50; Tacrine (Ellman method); source not given; cited from earlier work
row,Structure (SMILES),pIC50
1,Nc1c2c(nc3ccccc13)CCCC2 [Tacrine],7.24

# Source: article PMC6175823, “Identification of novel acetylcholinesterase inhibitors designed by pharmacophore-based virtual screening, molecular docking and bioassay” (Scientific Reports, 2018)
